According to patent US20150018311A1, “THERAPEUTIC BORON-CONTAINING COMPOUNDS” (priority 2012, published 2015):

Columns and labels:
[1] = test system: Candida albicans ATCC90028 (wild type); experiment: Filter paper disc antifungal assay on agar plates; type: cell-based; conditions: 5 mm disc, 37° C. 24 hours
Procedure: (§1) Compound 22 (the chloride salt) of table 1 was dissolved and the solution applied to a filter paper disc of diameter 5 mm. The filter paper discs were placed on plates containing the following strains of Candida albicans:
ATCC90028 (“wild type”, i.e. not resistant to nystatin or fluconazole)
(§2) The compound was applied at concentrations of 0.5, 1, 5, 10, 25 and 50 μg/ml. Nystatin and fluconazole at the same concentrations were applied in the same manner. […] All strains were tested at least three times.
(§3) Clearly, the higher the number, the greater the antifungal activity.

[2] = test system: Candida albicans; experiment: Filter paper disc antifungal assay, Candida albicans strains overall; type: cell-based
Procedure: as §1, §2, §3

[3] = test system: Staphylococcus aureus (ATCC 25923); experiment: Growth in liquid media in presence of test compound; type: cell-based
[4] = test system: Pseudomonas aeruginosa (ATCC 27853); experiment: as above; type: cell-based
[5] = test system: Escherichia coli (ATCC 25922); experiment: as above; type: cell-based
[6] = test system: Candida albicans (ATCC 90028); experiment: as above; type: cell-based
[7] = test system: Streptococcus pyogenes (ATCC 19615); experiment: as above; type: cell-based
[8] = test system: M. tuberculosis; experiment: Growth on solid media in presence of test compound; type: cell-based, Mycobacterium tuberculosis; conditions: result on solid media
[9] = test system: Candida albicans MYA576 (resistant to nystatin); experiment: Filter paper disc antifungal assay on agar plates; type: cell-based; conditions: 5 mm disc, 37° C. 24 hours
Procedure: as §1
MYA576 (resistant to nystatin).
as §2, §3

[10] = test system: Candida albicans ATCC38247 (resistant to fluconazole); experiment: Filter paper disc antifungal assay on agar plates; type: cell-based; conditions: 5 mm disc, 37° C. 24 hours
Procedure: as §1
ATCC38247 (resistant to fluconazole)
as §2, §3

[11] = test system: Mycobacterium tuberculosis (H37Rv); experiment: Growth in liquid media in presence of test compound; type: cell-based
[12] = test system: E. faecalis; experiment: as above; type: cell-based
Procedure: The strains were grown at 37° C. and after suitable cell concentrations had been reached, 100 μL of each cell suspension was added to a tube with growth media and test compound. Cultivation of the bacteria was then carried out in the presence of each test compound at 37° C. and the tubes examined for visible growth. The compounds were tested at concentrations of either 500 mg/l, 50 mg/l or 5 mg/l. This assay was repeated twice.
Some compounds were only tested against some test organisms. It will be appreciated that the charge of these molecules will depend on the environment, some of the Examples are shown with a suitable counter ion, some without.

SMILES: CC1(C)C2CC3OB([C@@H](CNC(=O)[C@@H](N)Cc4ccccc4)Cc4ccc5ccccc5c4)O[C@]3(C)C1C2.Cl (stereo partly drawn) [Compound 22, α-naphthyl-β-amino-(−)-pinanedioleboronate-N-]
- diameter of the area which did not show any Candida growth ([1]; ATCC90028, 0.5 μg/ml): 5 millimeters
- diameter of the area which did not show any Candida growth ([1]; ATCC90028, 1 μg/ml): 6 millimeters
- diameter of the area which did not show any Candida growth ([1]; ATCC90028, 5 μg/ml): 6.875 millimeters
- diameter of the area which did not show any Candida growth ([1]; ATCC90028, 10 μg/ml): 11.75 millimeters
- diameter of the area which did not show any Candida growth ([1]; ATCC90028, 25 μg/ml): 15.25 millimeters
- diameter of the area which did not show any Candida growth ([1]; ATCC90028, 50 μg/ml): 17 millimeters
- lowest concentration at which activity was shown [2]: 1 µg/mL
- Growth in the presence of test compound, S. aureus ([3]; 5 mg/L): +
- Growth in the presence of test compound, S. aureus ([3]; 50 mg/L): ±
- Growth in the presence of test compound, S. aureus ([3]; 500 mg/L): +
- Growth in the presence of test compound, P. aeruginosa ([4]; 5 mg/L): +
- Growth in the presence of test compound, P. aeruginosa ([4]; 50 mg/L): ±
- Growth in the presence of test compound, P. aeruginosa ([4]; 500 mg/L): +
- Growth in the presence of test compound, E. coli ([5]; 5 mg/L): +
- Growth in the presence of test compound, E. coli ([5]; 50 mg/L): +
- Growth in the presence of test compound, E. coli ([5]; 500 mg/L): +
- Growth in the presence of test compound, C. albicans ([6]; 5 mg/L): +
- Growth in the presence of test compound, C. albicans ([6]; 50 mg/L): −
- Growth in the presence of test compound, C. albicans ([6]; 500 mg/L): ±
- Growth in the presence of test compound, S. pyogenes ([7]; 5 mg/L): +
- Growth in the presence of test compound, S. pyogenes ([7]; 50 mg/L): −
- Growth in the presence of test compound, S. pyogenes ([7]; 500 mg/L): +
- Growth in the presence of test compound, M. tuberculosis ([8]; 5 mg/L): +
- Growth in the presence of test compound, M. tuberculosis ([8]; 50 mg/L): +
- Growth in the presence of test compound, M. tuberculosis ([8]; 500 mg/L): −
- diameter of the area which did not show any Candida growth ([9]; MYA576, 0.5 μg/ml): 5.33 millimeters
- diameter of the area which did not show any Candida growth ([9]; MYA576, 1 μg/ml): 6.67 millimeters
- diameter of the area which did not show any Candida growth ([9]; MYA576, 5 μg/ml): 10.67 millimeters
- diameter of the area which did not show any Candida growth ([9]; MYA576, 10 μg/ml): 12.67 millimeters
- diameter of the area which did not show any Candida growth ([9]; MYA576, 25 μg/ml): 14.33 millimeters
- diameter of the area which did not show any Candida growth ([9]; MYA576, 50 μg/ml): 15.67 millimeters
- diameter of the area which did not show any Candida growth ([10]; ATCC38247, 0.5 μg/ml): 5 millimeters
- diameter of the area which did not show any Candida growth ([10]; ATCC38247, 1 μg/ml): 5.21 millimeters
- diameter of the area which did not show any Candida growth ([10]; ATCC38247, 5 μg/ml): 7.43 millimeters
- diameter of the area which did not show any Candida growth ([10]; ATCC38247, 10 μg/ml): 12.86 millimeters
- diameter of the area which did not show any Candida growth ([10]; ATCC38247, 25 μg/ml): 17.29 millimeters
- diameter of the area which did not show any Candida growth ([10]; ATCC38247, 50 μg/ml): 19.14 millimeters

SMILES: NCCCCC(N)C(=O)NC(CB(O)O)Cc1ccccc1 (stereo not shown) [Compound 34]
- Growth in the presence of test compound, M. tuberculosis ([11]; 5 mg/L): +
- Growth in the presence of test compound, M. tuberculosis ([11]; 50 mg/L): −
- Growth in the presence of test compound, M. tuberculosis ([11]; 500 mg/L): −
- Growth in the presence of test compound, S. aureus ([3]; 5 mg/L): +
- Growth in the presence of test compound, S. aureus ([3]; 50 mg/L): +
- Growth in the presence of test compound, S. aureus ([3]; 500 mg/L): −
- Growth in the presence of test compound, P. aeruginosa ([4]; 5 mg/L): +
- Growth in the presence of test compound, P. aeruginosa ([4]; 50 mg/L): +
- Growth in the presence of test compound, P. aeruginosa ([4]; 500 mg/L): −
- Growth in the presence of test compound, E. coli ([5]; 5 mg/L): +
- Growth in the presence of test compound, E. coli ([5]; 50 mg/L): +
- Growth in the presence of test compound, E. coli ([5]; 500 mg/L): −
- Growth in the presence of test compound, E. faecalis ([12]; 5 mg/L): +
- Growth in the presence of test compound, E. faecalis ([12]; 50 mg/L): +
- Growth in the presence of test compound, E. faecalis ([12]; 500 mg/L): −
